Results taken from PubChem BioAssay (NCI).
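Exposure lasted 48 hours, with cells grown in 96-well plates and compounds tested at five concentrations. TGI marks complete inhibition of growth.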 Where a SMILES comes first, the peptide text is derived from it. [ ]: non-standard residue; d: D form. The star is where a group is joined. Bn2Val = CC(C)[C@@H](C(=O)*)N(Cc1ccccc1)Cc1ccccc1; NMeV = CN[C@H](C(=O)O)C(C)C; X29 = COc1ccc(CN*)c(OC)c1; dNMeA = CN[C@H](C)C(=O)O

Key:
Assay in all cases: NCI-60 cell line screen, 48 h
[1] = tested on: TK-10 renal
[2] = tested on: K-562 leukemia
[3] = tested on: EKVX NSCLC
[4] = tested on: NCI-H226 lung
[5] = tested on: PC-3 prostate
[6] = tested on: CAKI-1 renal
[7] = tested on: UO-31 renal
[8] = tested on: RXF 393 renal
[9] = tested on: SK-MEL-28 melanoma
[10] = tested on: A549 NSCLC

SMILES | TGI [1] [µM] | TGI [2] [µM] | TGI [3] [µM] | TGI [4] [µM] | TGI [5] [µM] | TGI [6] [µM] | TGI [7] [µM] | TGI [8] [µM] | TGI [9] [µM] | TGI [10] [µM]
CC(C)=CCOc1cc(NC(=S)c2ccsc2C)ccc1Cl | > 100 | > 100 | > 100 | > 100 | > 100 | > 100 | > 100 | 80.6 | > 100 | > 100
C=C[C@@]1(O)CCCC[C@@H]1CC(Sc1ccccc1)Sc1ccccc1 | 30.9 | > 100 | 31.1 | 38.7 | 29.1 | 30.1 | 32.2 | 30.5 | 86.8 | 36.2
C[N+](C)(C)C=Nc1cccc2c1CCCC2 | > 100 | > 100 | > 100 | > 100 | > 100 | > 100 | > 100 | > 100 | > 100 | > 100
Cc1ccc(-n2cc(-c3ccc(Cl)cc3)c3c(NN)ncnc32)cc1 | > 100 | 12 | 9.99 | 7.96 | 56.1 | 8.73 | 12.3 | 7.31 | 18.8 | 15.3
O=[N+]([O-])c1ccc2oc(=Nc3ccccc3)c(Nc3ccccc3)nc2c1 | > 100 | > 100 | > 100 | > 100 | > 100 | > 100 | > 100 | > 100 | > 100 | > 100
Cc1ccc(S(=O)(=O)[C@@H](Cl)[C@H]2N=C(Cl)NN=C2c2ccccc2)cc1 | > 100 | > 100 | > 100 | 61 | 39.5 | > 100 | 35.7 | 37.3 | 36.1 | > 100
COc1ccc(C(Cc2ccccc2)C2NC(=S)NC2=O)cc1 (stereo unspecified) | > 25 | > 25 | > 25 | > 25 | > 25 | > 25 | > 25 | > 25 | > 25 | > 25
COc1ccccc1N=Nc1c(O)c(S(=O)(=O)O)cc2cc(S(=O)(=O)O)ccc12 | > 100 | > 100 | > 100 | > 100 | > 100 | > 100 | > 100 | > 100 | > 100 | > 100
CC(C)(C)CC(C)(C)NC(=S)NO | > 100 | > 100 | > 100 | > 100 | > 100 | > 100 | > 100 | > 100 | > 100 | > 100
CN(C(=O)c1ccc2c(c1)sc1c(=O)n(C)c3ccccc3c12)c1ccccc1 | > 100 | > 100 | > 100 | > 100 | > 100 | > 100 | > 100 | > 100 | > 100 | > 100
NC(=O)c1cc(N(CCO)CCO)c([N+](=O)[O-])cc1[N+](=O)[O-] | > 100 | > 100 | > 100 | > 100 | > 100 | > 100 | > 100 | > 100 | > 100 | > 100
Cc1ccnc2nc(N)ccc12 | > 100 | > 100 | > 100 | > 100 | > 100 | > 100 | > 100 | > 100 | > 100 | > 100
CN(C)c1ccc(/C=C/C(=O)N[C@@H]2C(=O)N3[C@@H]2SC(C)(C)[C@@H]3C(=O)O)cc1 | > 100 | > 100 | > 100 | > 100 | > 100 | > 100 | > 100 | > 100 | > 100 | > 100
O=C1C=C2CCC[C@H]3OC(=O)C[C@@]23CC1 | > 100 | > 100 | > 100 | > 100 | > 100 | > 100 |  | > 100 | > 100 | > 100
Cc1cccc2nc3c(=O)[nH]c(=O)nc-3n(C)c12 | > 100 | > 100 | > 100 | > 100 | > 100 | > 100 |  | > 100 | > 100 | > 100
Nc1cccc(S(=O)(=O)Nc2nnc(S(N)(=O)=O)s2)c1 | > 100 | > 100 | > 100 | > 100 | > 100 | > 100 | > 100 | > 100 | > 100 | > 100
CCOC(=O)c1c(C)nc2c(c1-c1cn(-c3ccccc3)nc1-c1ccccc1)C(=O)c1ccccc1-2 | > 100 | > 100 | > 100 | > 100 | > 100 | > 100 |  | > 100 | > 100 | > 100
CC(=O)OC12c3ccccc3C(c3ccccc31)C1C(=O)N(c3ccccn3)C(=O)C12 (stereo unspecified) | > 100 | > 100 | > 100 | > 100 | > 100 | > 100 | 57.9 | > 100 | > 100 | > 100

SMILES | TGI [1] [µM] | TGI [2] [µM] | TGI [3] [µM] | TGI [4] [µM] | TGI [5] [µM] | TGI [6] [µM] | TGI [7] [µM] | TGI [8] [µM] | TGI [9] [µM] | TGI [10] [µM]
[O-][n+]1c(CN2CCCCC2)nc2cccc3c2c1-c1ccccc1-3 | 67.5 | > 100 | 49.2 | 39.8 | > 100 | 81.7 | 26.3 | 31.1 | > 100 | 33.1
OCC(CCc1ccccc1I)C1=CCC2(CC1)OCCO2 (stereo unspecified) | 50.7 | > 100 | 58.4 | 88.2 | 52.5 | 65.2 | 41.1 | 34.9 | 35 | 62.4
Cc1ccc(NC2=NCCO2)c2c1CCC2 | > 100 | > 100 | > 100 | > 100 | > 100 | > 100 | > 100 | > 100 | > 100 | > 100
CS(=O)(=O)c1nc(-c2cc3c(c(S(C)(=O)=O)n2)CCC3)cc2c1CCCC2 | > 100 | > 100 | > 100 | > 100 | > 100 | 38 | > 100 | 40.5 | > 100 | > 100
Cc1ccc(-c2cc(O)c3nc4ccccc4n3c2)cc1 | > 100 | > 100 | > 100 | > 100 | > 100 | > 100 | > 100 | > 100 | > 100 | > 100
CCCCCCCCCC(=O)N[C@@H](c1ccco1)[C@@H](O)C(=O)O[C@H]1C[C@@]2(O)[C@@H](OC(=O)c3ccccc3)[C@@H]3[C@]4(OC(C)=O)CO[C@@H]4C[C@H](O)[C@@]3(C)C(=O)[C@H](OC(C)=O)C(=C1C)C2(C)C | 9.22 | > 50 | > 50 | 9.53 | > 35.1 | > 38.9 | 12.7 | 0.898 | 14.8 | > 50
O=CC(O)C(O)C(O)C1CNC(=S)O1 (stereo unspecified) | > 100 | > 100 | > 100 | > 100 | > 100 | > 100 | > 100 | > 100 | > 100 | > 100
COc1ccc(CNC(=O)[C@@H]2CCCN2C(=O)[C@@H](C)N(C)C(=O)[C@H](C(C)C)N(C)C(=O)[C@@H](NC(=O)[C@H](C(C)C)N(Cc2ccccc2)Cc2ccccc2)C(C)C)c(OC)c1 (Bn2Val-V[NMeV][dNMeA]P-X29) | 22.4 | > 100 | 12 | 22.1 | 10.1 | 15.5 | 12 | 3.94 | 10.2 | > 100
CC1(C)C(CCO)CC1n1ccc(=O)[nH]c1=O (stereo unspecified) | > 100 | 72.4 | > 100 | > 100 | > 100 | > 100 | > 100 | > 100 | > 100 | > 100
Nc1nccc(NCC2(CO)CCC2)n1 | 77.4 | > 100 | > 100 | > 100 | > 100 | > 100 | > 100 | > 100 | > 100 | > 100
CN1CN(c2ccccc2)C2(CCN(CCCCCCF)CC2)C1=O | > 100 | > 100 | > 100 | > 100 | > 100 | > 100 | 94.2 | > 100 | > 100 | > 100
NC(Cc1c[nH]c2cc([N+](=O)[O-])ccc12)C(=O)O (stereo unspecified) | > 100 | > 100 | > 100 | > 100 | > 100 | > 100 | > 100 | > 100 | > 100 | > 100
CCOC(=O)NNC(=O)NCc1ccccc1CNC(=O)NNC(=O)OCC | > 100 | > 100 | > 100 | > 100 | > 100 | > 100 | > 100 | > 100 | > 100 | > 100
COC(=O)[C@@](C)(COC(=O)C(C)(C)C)NC(=O)OC(C)(C)C | > 100 | > 100 | > 100 | > 100 | > 100 | > 100 | > 100 | > 100 | > 100 | > 100
O=c1[nH]c(=O)n(COCCO)c2ccsc12 | > 100 | > 100 | > 100 | > 100 | > 100 | > 100 | > 100 | > 100 | > 100 | > 100
O=C(O)CC[P+](c1ccccc1)(c1ccccc1)c1ccccc1 | > 100 | > 100 | > 100 | > 100 | > 100 | > 100 | > 100 | > 100 | > 100 | > 100
COC(=O)CCc1c(Cc2ccc[nH]2)[nH]c(C(=O)OCc2ccccc2)c1C | 76.2 | 58.5 | 91.3 | 35.4 | 60 | 64.7 |  | 49 | 39.7 | > 100
